Where two headings read alike, the source gives them in different places.
Experiments:
[1] = system: acutely dissociated and purified rat OPCs; experiment: Acute OL differentiation assay (MBP expression/cell, immunofluorescent image quantification); assay type: cell-based; details: sheet "All OLga data"
Procedure, shortened: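 This acute differentiation assay used purified rat OPCs from postnatal day 6–7 pups, seeded into PDL/laminin-coated 96-well plates in differentiation medium lacking PDGF and FGF. Compounds were applied in quadruplicate after a 1–2 h preincubation at 37 °C, 10 % CO2, with 0.1 % DMSO negative and 40 ng/ml T3 positive controls in eight wells. After fixation on DIV4, anti-MBP immunofluorescence images yielded MBP expression/cell.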

expanded OPCs = experiment: cells; details: for viability at 0.1 µM / viability at 1 µM / viability at 10 µM: Rattus norvegicus, 72 h
Procedure, shortened: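 Toxicity screen: compounds added at 0.1, 1 and 10 µM to PDGF-AA-expanded OPCs in 96-well plates, 3-day incubation at 37 °C, 10% CO2, then alamarBlue 1:10 for 4 h with fluorescence readout. Results set screening doses of 10/2, 2/0.4 or 0.4/0.08 µM.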

[2] = Rattus norvegicus, test compound at 2 uM, NCC library screen, relative to quetiapine, read-out: 2 uM (% Quet)
[3] = Rattus norvegicus, test compound at 10 uM, NCC library screen, relative to quetiapine, read-out: 10 uM (% Quet)
[4] = alamarBlue viability of expanded OPCs, compound at 0.1 µM, relative to DMSO control
[5] = alamarBlue viability of expanded OPCs, compound at 1 µM, relative to DMSO control
[6] = alamarBlue viability of expanded OPCs, compound at 10 µM, relative to DMSO control
[7] = Rattus norvegicus, 2 uM test compound, relative to quetiapine, read-out: OL differentiation, 2 uM (% Quet)
[8] = Rattus norvegicus, 10 uM test compound, relative to quetiapine, read-out: OL differentiation, 10 uM (% Quet)
[9] = read-out: 0.1 µM (% DMSO), alamarBlue viability of expanded OPCs, compound at 0.1 µM, sheet All Tox data
[10] = read-out: 1 µM (% DMSO), alamarBlue viability of expanded OPCs, compound at 1 µM, sheet All Tox data
[11] = read-out: 10 µM (% DMSO), alamarBlue viability of expanded OPCs, compound at 10 µM, sheet All Tox data
[12] = Rattus norvegicus, test compound at 2 uM, MBP expression relative to quetiapine, NCC library screen, read-out: 2 uM (% Quet)
[13] = Rattus norvegicus, test compound at 10 uM, MBP expression relative to quetiapine, NCC library screen, read-out: 10 uM (% Quet)
[14] = read-out: 0.1 µM (% DMSO), alamarBlue viability, NCC library compound at 0.1 µM, sheet "All Tox data"
[15] = read-out: 1 µM (% DMSO), alamarBlue viability, NCC library compound at 1 µM, sheet "All Tox data"
[16] = read-out: 10 µM (% DMSO), alamarBlue viability, NCC library compound at 10 µM, sheet "All Tox data"
[17] = Rattus norvegicus, 0.4 uM test compound, relative to quetiapine, read-out: OL differentiation, 0.4 uM (% Quet)

SMILES | 0.1 µM (% DMSO) (expanded OPCs; [4]) | 1 µM (% DMSO) (expanded OPCs; [5]) | 10 µM (% DMSO) (expanded OPCs; [6]) | activation at 2 µM [1, 7] | activation at 10 µM [1, 8] | viability at 0.1 µM (expanded OPCs; [9]) | viability at 1 µM (expanded OPCs; [10]) | viability at 10 µM (expanded OPCs; [11]) | activation at 2 µM [1, 12] | activation at 10 µM [1, 13] | other results
Cc1cccc(Nc2ccccc2C(=O)O)c1C [Mefenamic Acid] | 92.7 % DMSO | 91.8 % DMSO | 83.6 % DMSO |  |  |  |  |  |  |  | activation at 2 µM [1, 2]: -4%; activation at 10 µM [1, 3]: -22.3%
OC(c1cc(C(F)(F)F)nc2c(C(F)(F)F)cccc12)C1CCCCN1 (stereo not shown) [Mefloquine] | 39.0 % DMSO | 11.0 % DMSO | 7.4 % DMSO |  |  |  |  |  |  |  | activation at 0.08 µM ([1]; Rattus norvegicus, test compound at 0.08 uM, MBP expression relative to quetiapine, NCC library screen, read-out: 0.08 uM (% Quet)): -20.5%; activation at 0.4 µM ([1]; Rattus norvegicus, test compound at 0.4 uM, MBP expression relative to quetiapine, NCC library screen, read-out: 0.4 uM (% Quet)): -134%
CC(=O)O[C@]1(C(C)=O)CC[C@H]2[C@@H]3C=C(C)C4=CC(=O)CC[C@]4(C)[C@H]3CC[C@@]21C [Megestrol acetate] |  |  |  | -21.6% | -29.4% | 97.2% | 89.3% | 96.5% |  |  | 
Cc1cnc(NC(=O)C2=C(O)c3ccccc3S(=O)(=O)N2C)s1 [Meloxicam] | 93.1 % DMSO | 94.6 % DMSO | 86.1 % DMSO |  |  |  |  |  | -8.5% | 1.4% | 
CC1CCN(CCCC(=O)c2ccc(F)cc2)CC1.Cl [Melperone hydrochloride] |  |  |  |  |  |  |  |  |  |  | 2 uM (% Quet) ([1]; test compound at 2 uM, NCC library screen, relative to quetiapine): 39.6 % Quet; 10 uM (% Quet) ([1]; test compound at 10 uM, NCC library screen, relative to quetiapine): 43.4 % Quet; 0.1 µM (% DMSO) (expanded OPCs; alamarBlue viability, NCC library compound at 0.1 µM, sheet "All Tox data"): 105.5 % DMSO; 1 µM (% DMSO) (expanded OPCs; alamarBlue viability, NCC library compound at 1 µM, sheet "All Tox data"): 130.9 % DMSO; 10 µM (% DMSO) (expanded OPCs; alamarBlue viability, NCC library compound at 10 µM, sheet "All Tox data"): 151.7 % DMSO
CC12CC3CC(C)(C1)CC(N)(C3)C2 [Memantine] | 93.3 % DMSO | 84.1 % DMSO | 67.0 % DMSO | -9.2% | -28.3% | 97.8% | 93.2% | 59.7% | -64.4% | -100% | 
Cc1cccc(C)c1NC(=O)C1CCCCN1C (stereo not shown) [Mepivacaine] |  |  |  |  |  |  |  |  |  |  | activation at 2 µM [1, 2]: -6.4%; activation at 10 µM [1, 3]: -0.9%; viability at 0.1 µM (expanded OPCs; [14]): 89.5%; viability at 1 µM (expanded OPCs; [15]): 89.9%; viability at 10 µM (expanded OPCs; [16]): 79.7%
Sc1ncnc2nc[nH]c12 [Mercaptopurine] | 92.3 % DMSO | 92.7 % DMSO | 95.9 % DMSO |  |  |  |  |  | 3.6% | -5.6% | 
C[C@@H](O)[C@H]1C(=O)N2C(C(=O)O)=C(S[C@@H]3CN[C@H](C(=O)N(C)C)C3)[C@H](C)[C@H]12 [Meropenem] |  |  |  | -4.2% | 2.8% | 95.8% | 98.1% | 102% |  |  | 
Nc1ccc(O)c(C(=O)O)c1 [Mesalamine] |  |  |  | -9.1% | -0.34% | 86.2% | 92.2% | 87.2% |  |  | 
O=S(=O)(O)CCS [Mesna] | 92.5 % DMSO | 91.3 % DMSO | 100.9 % DMSO |  |  |  |  |  | -46% | -38.6% | 
CN1CCCCC1CCN1c2ccccc2Sc2ccc([S+](C)[O-])cc21 (stereo not shown) [Mesoridazine] |  |  |  | -3.1% |  | 82.1% | 76.6% | 28.3% |  |  | activation at 0.4 µM [1, 17]: 6.6%
C[C@]12CCC(=O)C[C@@H]1CC[C@@H]1[C@@H]2CC[C@@]2(C)[C@H]1CC[C@]2(C)O [Mestanolone] |  |  |  | 0.8% | -18% | 102% | 94.1% | 120% |  |  | 
C#C[C@]1(O)CC[C@H]2[C@@H]3CCc4cc(OC)ccc4[C@H]3CC[C@@]21C [Mestranol] |  |  |  | 92.5% | -6.7% |  |  |  |  |  | viability at 0.1 µM (expanded OPCs; [14]): 102%; viability at 1 µM (expanded OPCs; [15]): 103%; viability at 10 µM (expanded OPCs; [16]): 114%
CC(C)NCC(O)c1cc(O)cc(O)c1 (stereo not shown) [Metaproterenol] | 89.2 % DMSO | 91.6 % DMSO | 91.1 % DMSO |  |  |  |  |  | -0.7% | 3.5% | 
C[C@]12CC[C@H](O)CC1=CC[C@@H]1[C@@H]2CC[C@@]2(C)[C@H]1CC[C@]2(C)O [Methandriol] |  |  |  | 4.1% | -0.6% | 91.2% | 87.5% | 88% |  |  | 
CC(=O)/N=c1/sc(S(N)(=O)=O)nn1C [Methazolamide] | 90.9 % DMSO | 92.5 % DMSO | 88.3 % DMSO |  |  |  |  |  | -29% | -40% | 
Cn1cc[nH]c1=S [Methimazole] | 88.3 % DMSO | 90.9 % DMSO | 85.4 % DMSO |  |  |  |  |  | -0.16% | -20.4% | 
COc1ccccc1OCC(O)COC(N)=O (stereo not shown) [Methocarbamol] | 89.9 % DMSO | 92.3 % DMSO | 88.1 % DMSO |  |  |  |  |  |  |  | activation at 2 µM [1, 2]: 2.8%; activation at 10 µM [1, 3]: -3.7%
CN(Cc1cnc2nc(N)nc(N)c2n1)c1ccc(C(=O)N[C@@H](CCC(=O)O)C(=O)O)cc1 [Methotrexate] |  |  |  | 4.9% |  | 77.9% | 68.5% | 52.8% |  |  | activation at 0.4 µM [1, 17]: -11%
COc1c2occc2cc2ccc(=O)oc12 [Methoxsalen] | 88.8 % DMSO | 90.5 % DMSO | 85.4 % DMSO |  |  |  |  |  | -13.9% | -33.3% | 
C[C@](N)(Cc1ccc(O)c(O)c1)C(=O)O [Methyldopa] | 100.4 % DMSO | 86.9 % DMSO | 63.4 % DMSO |  |  |  |  |  |  |  | activation at 2 µM [1, 2]: -37.7%; activation at 10 µM [1, 3]: -93.8%
CC(=O)OCC(=O)[C@@]1(O)CC[C@H]2[C@@H]3C[C@H](C)C4=CC(=O)C=C[C@]4(C)[C@H]3[C@@H](O)C[C@@]21C [Methylprednisolone acetate] | 106.9 % DMSO | 104.6 % DMSO | 95.3 % DMSO |  |  |  |  |  | 3.6% | -59.5% | 
C[C@H]1C[C@@H]2[C@H]([C@@H](O)C[C@@]3(C)[C@H]2CC[C@]3(O)C(=O)CO)[C@@]2(C)C=CC(=O)C=C12 [Methylprednisolone] | 115.7 % DMSO | 111.5 % DMSO | 102.3 % DMSO |  |  |  |  |  | -2.6% | -32.2% | 
C[C@]12CCC(=O)C=C1CC[C@@H]1[C@@H]2CC[C@@]2(C)[C@H]1CC[C@]2(C)O [Methyltestosterone] |  |  |  | -8.1% | -36.5% | 103% | 112% | 102% |  |  | 
CCN(CC)CCNC(=O)c1cc(Cl)c(N)cc1OC [Metoclopramide] | 108.4 % DMSO | 109.6 % DMSO | 116.8 % DMSO |  |  |  |  |  |  |  | activation at 2 µM [1, 2]: -21.4%; activation at 10 µM [1, 3]: -26.2%
Cc1ncc([N+](=O)[O-])n1CCO [Metronidazole] |  |  |  | 0.09% | 24.8% | 84.6% | 88.7% | 79.3% |  |  | 
CC(C)(C(=O)c1cccnc1)c1cccnc1 [Metyrapone] | 90.5 % DMSO | 94.0 % DMSO | 93.4 % DMSO |  |  |  |  |  | 9.9% | -15% | 

Source: article PMC5011342, “A high throughput drug screening assay to identify compounds that promote oligodendrocyte differentiation using acutely dissociated and purified oligodendrocyte precursor cells” (BMC Research Notes, 2016)
